Measured values reported in patent publication US20070098649A1, “Method and composition for controlling oral pathogens” (priority 2004, published 2007).
Structures can show the parent of a compound that is named as a salt. Where two headings read alike, the source gives them in different places. Each block holds one compound with its values, some of them ahead of it.

Legend:
[1] = tested on: Actinobacillus actinomycetemcomitans; experiment: MIC microdilution assay; assay type: cell-based; settings: for MIC: Aggregatibacter actinomycetemcomitans
Porphymonas gingivalis [2] = experiment: MIC microdilution assay; assay type: cell-based; settings: for MIC: Porphyromonas gingivalis
Fusobacterium nucleatum [3] = experiment: MIC microdilution assay; assay type: cell-based; settings: for MIC: Fusobacterium nucleatum
Streptococcus mutans [4] = experiment: MIC microdilution assay; assay type: cell-based; settings: for MIC: Streptococcus mutans
Streptococcus gordonii [5] = experiment: MIC microdilution assay; assay type: cell-based; settings: for MIC: Streptococcus gordonii
[6] = tested on: S. aureus, E. coli, P. aeruginosa, and S. sanguis; settings: isolated from H. canadensis; cited from earlier work
test bacteria [7] = experiment: MIC microdilution assay, statements on all test bacteria; assay type: cell-based; settings: read-out: Concentration without growth inhibition of the test bacteria (MIC bound)
P. gingivalis = experiment: Relative cell surface hydrophobicity (hexanes partition); assay type: cell-based; settings: agent alone 5 μg ml^−1
S. gordonii = experiment: as above; assay type: cell-based; settings: agent alone 5 μg ml^−1
oral pathogens = experiment: Combination determination, statements on the oral pathogens; assay type: cell-based; settings: berberine hydrochloride / berberine (B-CG and B-S)
Procedure: (§1) The alkaloids were tested in pair-wise combinations (fractional inhibitory concentrations, FIC) against all the bacteria to determine whether interactions were antagonistic (FIC>1), additive (0.5<FIC<1), or synergistic (FIC<0.5). The FIC was calculated by the following: (MIC Acombination/MIC Aalone)+(MIC Bcombination/MIC Balone). Where A represents compound 1 and B represents compound 2. […] In the case of A. actinomycetemcomitans and P. aeruginosa, CHX was used at 0.78 to 50 μg ml^−1. Berberine (B-CG and B-S) was used at concentrations 0.9 to 250 μg ml^−1. The antibacterial efficacy of berberine (1.95 to 500 μg ml^−1) was tested in combination against P. aeruginosa with CHX (0.78 to 50 μg ml^−1) (Sigma Chemicals) and the polymyxin antibiotic Col (0.04 to 25 μg ml^−1) (Sigma Chemicals). The plates were incubated for 24 hours.

Staphylococcus aureus [8] = experiment: MIC microdilution assay; assay type: cell-based; settings: S. aureus, agent alone, read-out: MIC of the antimicrobial agents alone
test bacteria [9] = experiment: Relative cell surface hydrophobicity, statements on the test bacteria; assay type: cell-based; settings: summary of Table 12
Escherichia coli [10] = experiment: MIC microdilution assay; assay type: cell-based; settings: E. coli, agent alone, read-out: MIC of the antimicrobial agents alone
Fusobacterium nucleatum [11] = experiment: Combination determination (FIC, MIC in combination); assay type: cell-based; settings: F. nucleatum
Procedure: as §1

Streptococcus gordonii [12] = experiment: as above; assay type: cell-based; settings: S. gordonii
Procedure: as §1

Porphymonas gingivalis [13] = experiment: as above; assay type: cell-based; settings: P. gingivalis
Procedure: as §1

Staphylococcus aureus [14] = experiment: as above; assay type: cell-based; settings: S. aureus; for Approximate amount of antibiotic required when combined with berberine relative to when the agent is used alone: fraction of the amount alone, HCl
Procedure: as §1

Escherichia coli [15] = experiment: as above; assay type: cell-based; settings: E. coli
Procedure: as §1

[16] = tested on: Actinobacillus actinomycetemcomitans; experiment: as above; assay type: cell-based; settings: A. actinomycetemcomitans grown under anaerobic conditions; berberine (B-CG) combined with CHX, Tet or Dox; MIC of the named agent in the combination
Procedure: as §1

F. nucleatum [17] = experiment: Relative cell surface hydrophobicity (hexanes partition); assay type: cell-based; settings: agent alone 5 μg ml^−1
F. nucleatum [18] = experiment: Viability assessment (bactericidal activity); assay type: cell-based
Procedure: Two representative organisms, S. mutans and F. nucleatum, were used in this study. […] Aliquots of 4 ml of agent, prepared in sterile water, were placed into sterile test tubes and 1 ml of adjusted cells was added. The control consisted of 4 ml of PBS and 1 ml of cells. Samples were removed at 0, 15, 30, and 60 minutes, serial dilutions were performed, and the appropriate dilutions plated out. The plates were incubated at 37° C. under appropriate atmospheric conditions for up to 72 hours. Viable colony counts were determined and compared to nontreated control Percentage kill was calculated using the formula: ([…]×100. Log reduction was also calculated on Log10 transformed data. Effect of Berberine on Cell Surface Hydrophobicity

S. mutans = experiment: Relative cell surface hydrophobicity (hexanes partition); assay type: cell-based; settings: agent alone 5 μg ml^−1
A. actinomycetemcomitans = experiment: as above; assay type: cell-based; settings: agent alone 5 μg ml^−1
Streptococcus mutans [19] = experiment: Combination determination (FIC, MIC in combination); assay type: cell-based; settings: S. mutans
Procedure: as §1
CHX was diluted from left to right at 10 to 0.08 μg ml^−1 ([…] 1 to 8), berberine was diluted from top to bottom at 250 to 0.09 μg ml^−1 ([…] 1 to 8). Column 9 was the cell control, column 10 was berberine alone (250 to 0.09 μg ml^−1); and column 11 was CHX alone (10 to 0.08 μg ml^−1). Row H was the solvent control (8% DMSO, H1 to H8). Column 12 was the media blank. The dilution assay was designed such that A1 contained the highest concentration of both agents (berberine 250 μg ml^−1 and CHX 10 μg ml^−1). The final concentration of berberine in wells A2 to A8 was […]. The FIC value was calculated from well C6. FIC was calculated by: (MIC Acombination/MIC Aalone)+(MIC Bcombination/MIC Balone).

[20] = read-out: MIC of Goldenseal Alkaloids Against Selected Oral Pathogens
[21] = berberine (B-CG) combined with CHX, Tet or Dox, MIC of the named agent in the combination
[22] = berberine hydrochloride / chloride

- MIC of Goldenseal Alkaloids Against Selected Oral Pathogens ([1]; Aa, A. actinomycetemcomitans): >250 µg/mL
- MIC of Goldenseal Alkaloids Against Selected Oral Pathogens (Porphymonas gingivalis [2]; Pg, P. gingivalis): >250 µg/mL
- MIC of Goldenseal Alkaloids Against Selected Oral Pathogens (Fusobacterium nucleatum [3]; Fn, F. nucleatum): >250 µg/mL
- MIC of Goldenseal Alkaloids Against Selected Oral Pathogens (Streptococcus mutans [4]; Sm, S. mutans): >250 µg/mL
- MIC of Goldenseal Alkaloids Against Selected Oral Pathogens (Streptococcus gordonii [5]; Sg, S. gordonii): >250 µg/mL
SMILES: COc1ccc(C[C@@H]2c3cc4c(cc3CCN2C)OCO4)c(C=O)c1OC [Canadaline, canadaline]
- Antibacterial activity [6]: antimicrobial at comparable concentrations to berberine

SMILES: COc1ccc2c(c1OC)CN1CCc3cc4c(cc3[C@@H]1C2)OCO4 [Canadine, canadine]
- MIC (test bacteria [7]): > 250 µg/mL
- MIC [1, 20]: > 500 µg/mL
- MIC (Porphymonas gingivalis [2]; [20]): > 500 µg/mL
- MIC (Fusobacterium nucleatum [3]; [20]): > 500 µg/mL
- MIC (Streptococcus mutans [4]; [20]): > 500 µg/mL
- MIC (Streptococcus gordonii [5]; [20]): > 500 µg/mL
- Antibacterial activity [6]: antimicrobial at comparable concentrations to berberine

SMILES: C[C@H]1c2cccc(O)c2C(=O)C2=C(O)[C@]3(O)C(=O)C(C(N)=O)=C(O)[C@@H](N(C)C)[C@@H]3[C@@H](O)[C@@H]21 [Dox, doxycycline HCl]
- MIC ([1]; A. actinomycetemcomitans grown under anaerobic conditions, agent alone, read-out: MIC of the antimicrobial agents alone): 6.25 µg/mL
- MIC (Porphymonas gingivalis [2]; P. gingivalis, agent alone, read-out: MIC of the antimicrobial agents alone): 0.08 µg/mL
- Typical reduction scores on relative cell surface hydrophobicity (P. gingivalis): 1.7%
- MIC (Fusobacterium nucleatum [3]; F. nucleatum, agent alone, read-out: MIC of the antimicrobial agents alone): 0.04 µg/mL
- Typical reduction scores on relative cell surface hydrophobicity (S. gordonii): 7.7%
- Growth inhibition effect when combined with berberine (oral pathogens): synergistic
- MIC (Staphylococcus aureus [8]): 1.53 µg/mL
- Effect on the relative hydrophobicity of the cells (test bacteria [9]): did not appear to affect
- MIC (Escherichia coli [10]): 1.53 µg/mL
- MIC (Streptococcus mutans [4]; S. mutans, agent alone, read-out: MIC of the antimicrobial agents alone): 0.78 µg/mL
- MIC of the antimicrobial agents in combination (Fusobacterium nucleatum [11]; [21]): 0.10 µg/mL
- Approximate amount of antibiotic required when combined with berberine relative to when the agent is used alone (Fusobacterium nucleatum [11]; fraction of the amount alone): ¼
- MIC of the antimicrobial agents in combination (Streptococcus gordonii [12]; [21]): 0.08 µg/mL
- Approximate amount of antibiotic required when combined with berberine relative to when the agent is used alone (Streptococcus gordonii [12]; fraction of the amount alone): <¼
- MIC of the antimicrobial agents in combination (Porphymonas gingivalis [13]; [21]): 0.01 µg/mL
- Approximate amount of antibiotic required when combined with berberine relative to when the agent is used alone (Porphymonas gingivalis [13]; fraction of the amount alone): ¼
- MIC of the antimicrobial agents in combination (Staphylococcus aureus [14]; [21]): 0.39 µg/mL
- Growth inhibition effect when combined with berberine (Staphylococcus aureus [14]; [22]): synergistic
- Approximate amount of antibiotic required when combined with berberine relative to when the agent is used alone (Staphylococcus aureus [14]; listed as Doxycycline (HCL)): ⅕
- Approximate amount of antibiotic required when combined with berberine relative to when the agent is used alone (Staphylococcus aureus [14]; listed as Doxycycline-HCl): ½
- MIC of the antimicrobial agents in combination (Escherichia coli [15]; [21]): 0.77 µg/mL
- Growth inhibition effect when combined with berberine (Escherichia coli [15]; [22]): synergistic
- Approximate amount of antibiotic required when combined with berberine relative to when the agent is used alone (Escherichia coli [15]; fraction of the amount alone): ½
- MIC of the antimicrobial agents in combination [16]: 6.25 µg/mL
- Typical reduction scores on relative cell surface hydrophobicity (F. nucleatum [17]): −3.5%
- Reduction of the concentration required for comparable reduction in viability when used in combination (F. nucleatum [18]; Dox (5 μg ml^−1), berberine (250 μg ml^−1)): one-half
- Viability after 60 min exposures (mean Log10 reduction of CFU) (F. nucleatum [18]; Dox (10)): 1.56 Log10
- Typical reduction scores on relative cell surface hydrophobicity (S. mutans): 8.1%
- Typical reduction scores on relative cell surface hydrophobicity (A. actinomycetemcomitans): −4.1%
- MIC (Streptococcus gordonii [5]; S. gordonii, agent alone, read-out: MIC of the antimicrobial agents alone): 0.31 µg/mL
- MIC of the antimicrobial agents in combination (Streptococcus mutans [19]; [21]): 0.20 µg/mL
- Approximate amount of antibiotic required when combined with berberine relative to when the agent is used alone (Streptococcus mutans [19]; fraction of the amount alone): ¼

SMILES: COc1ccc2c(c1OC)C(=O)O[C@@H]2[C@H]1c2cc3c(cc2CCN1C)OCO3 [Hydrastine, hydrastine]
- MIC (test bacteria [7]): > 500 µg/mL
- MIC [1, 20]: > 500 µg/mL
- MIC (Porphymonas gingivalis [2]; [20]): > 500 µg/mL
- MIC (Fusobacterium nucleatum [3]; [20]): > 500 µg/mL
- MIC (Streptococcus mutans [4]; [20]): > 500 µg/mL
- MIC (Streptococcus gordonii [5]; [20]): > 500 µg/mL
